Measurements from paper PMC10714334, “Developing multispecies quorum-sensing modulators based on the Streptococcus mitis competence-stimulating peptide” (The Journal of Biological Chemistry, 2023).
Non-standard residues stand in square brackets, D forms with d. Residues, ends and D or L forms follow the SMILES beside them. No end group written: not given here.

Tests used:
S. mitis ComD-2 receptor [1] = assay: luminescence reporter competitive inhibition assay (comX expression); assay type: cell-based, Streptococcus mitis; details: for IC50: same reporter strain, competition against 1 μM native S. mitis-CSP-2, 30 min at 37 °C, triplicate on three separate days
Protocol: As a positive control, 2 μl of S. mitis-CSP-2 and 2 μl of DMSO were added to the same well in triplicate. As a negative control, 4 μl of DMSO was added in triplicate. Then, 2 μl of 15 mg/ml D-luciferin in distilled water was added to each experimental or control well, after which 194 μl of bacteria was added, and the plate was incubated for 30 min at 37 °C. Following incubation, the A600 and luminescence of each experimental well were measured. Results were reported as percent activation, which is the ratio between the luminescence (presented as relative luminescence units, RLU/A600) of the analog and that of the positive control. […] GraphPad Prism was used to calculate the IC50 values, which are the concentration of inhibitor where the response (or binding) is reduced by half. Experiments were performed in triplicate on three separate days.
Antagonism assays were performed at 10 μM concentration of peptides against 1 µM concentration of S. mitis-CSP-2. S. mitis-CSP-2 (1 µM) was used as the positive control (100%) while DMSO as the negative control (0%). For all figures, comX expression is presented as relative luminescence units (RLU) divided by measured cultural optical density (OD). Percent (%) ComD activation was measured by normalizing the RLU/OD value obtained for each peptide to that of the native S. mitis-CSP-2. The results are averages from three replicates and representative of three independent experiments. Error bars represent the standard error of the mean of nine values.
Figure S-8. Primary antagonism screening assay data for t he S. mitis-CSP-2 alanine scan and D-amino acid […]
determine its IC50 value.
Figure S-9. Primary antagonism screening assay data for t he S. mitis-CSP-2 truncated analogs . S. mitis- […]

S. mitis ComD-2 receptor [2] = assay: luminescence reporter activation assay (comX expression); assay type: cell-based, Streptococcus mitis; details: for EC50: S. mitis luciferase reporter strain ATCC49456 PcomX luc::Spc, 30 min at 37 °C, triplicate on three separate days
Protocol: The ability of synthetic S. mitis-CSP-2 analogs to activate the expression of S. mitis comX was determined using the constructed S. mitis luciferase reporter strain. First, bacteria from the S. mitis luciferase reporter strain freezer stock were streaked onto a Todd-Hewitt broth supplemented with 0.5% yeast extract (THY) agar plate containing 5% horse serum and spectinomycin at a final concentration of 200 μg/ml. The plate was incubated overnight in a CO2 incubator (37 °C with 5% CO2). Fresh colonies were transferred to Tryptic soy broth supplemented with spectinomycin at a final concentration of 200 μg/ml, and the culture was incubated at 37 °C in a 5% CO2-supplemented atmosphere and grown overnight (16 h) until the culture reached an absorbance at 600 nm (optical density at 600 nm [A600]) of 0.45. Overnight cultures of the S. mitis reporter strain at A600 0.45 were diluted 1:10 in Tryptic soy broth and the liquid cultures were incubated in a CO2 incubator for 30 to 45 min, until the bacteria reached early exponential stage (A600 ∼ 0.2) as determined by using a plate reader. During incubation, clear-bottom white 96-well microtiter plates were prepared for the activation assays. An initial activation screening was performed at a high peptide concentration (10,000 nM) for all the S. mitis-CSP-2 analogs (Figs. S1–S7). For each experimental sample, a total of 2 μl of a 1 mM CSP stock solution in dimethyl sulfoxide (DMSO) was added in triplicate to the clear-bottom white 96-well microtiter plate. A total of 2 μl of DMSO was added in triplicate and served as the negative control, and 2 μl of a 1 mM stock of native S. mitis-CSP-2 was added in triplicate as a positive control. In the dark, 2 μl of a 15 mg/ml D-luciferin stock in distilled water was added to each well. Following the addition of synthetic CSPs and D-luciferin, 196 μl of the diluted bacterial culture was added to each well, and the plate was incubated for 30 min at 37 °C. Following incubation, the A600 and luminescence of each experimental well were measured. Results were reported as percent activation, which is the ratio between the luminescence (presented as relative luminescence units, RLU/A600) of the analog and that of the positive control. […] EC50 values, the concentration of the peptide to achieve a half maximal response, for each activator were calculated using GraphPad Prism (https://www.graphpad.com/). Experiments were performed in triplicate on three separate days.
Primary reporter gene assay data
Agonism assays were performed at a 10 µM concentration of synthetic CSP. S. mitis-CSP-2 was used as the positive control (100%) while DMSO as the negative control (0%). For all figures, comX expression is presented as relative luminescence units (RLU) divided by measured cultural optical density (OD). Percent (%) ComD activation was measured by normalizing the RLU/OD value obtained for each peptide to that of the native S. mitis-CSP-2. The results are averages from three replicates and representative of three independent experiments. Error bars represent the standard error of the mean of nine values.
Figure S-1. Primary agonism screening assay data for the S. mitis-CSP-2 alanine scan analogs. Peptides […]
(1 picture or pasted object on this page, not shown here)

[3] = molecular target: pneumococcus ComD1 receptor; details: read-out: EC50, S. pneumoniae ComD1; cited from earlier work
Source text: (§1) Table 5 EC50 or IC50 values of select Streptococcus mitis-CSP-2–based pneumococcal QS modulators against the pneumococcus ComD1 and ComD2 and the S. mitis ComD-2 receptors ^a | column: Streptococcus pneumoniae ^b / ComD1 / EC50 or IC50∗ (nM) || In our previous work, we utilized the S. mitis-CSP-2 scaffold to develop analogs capable of modulating the two pneumococcal ComD receptors at low nanomolar concentrations ([2]). We wanted to evaluate whether the optimization of the S. mitis-CSP-2 scaffold to the pneumococcus ComD receptors affected the ability of the modified analogs to interact with the S. mitis ComD-2 receptor.

[4] = molecular target: pneumococcus ComD2 receptor; details: read-out: EC50, S. pneumoniae ComD2; cited from earlier work
Source text: as §1, with “/ ComD2” for “/ ComD1”

| Molecule | EC50 (S. mitis ComD-2 receptor [2]) [nM] | EC50 [3] [nM] | EC50 [4] [nM] | other results |
| --- | --- | --- | --- | --- |
| CC[C@H](C)[C@H](NC(=O)[C@H](C)N)C(=O)N[C@@H](CCCNC(=N)N)C(=O)N[C@@H](CCC(N)=O)C(=O)N[C@H](C(=O)N[C@@H](Cc1c[nH]cn1)C(=O)N[C@@H](CC(N)=O)C(=O)N[C@H](C(=O)N[C@@H](Cc1ccccc1)C(=O)N[C@H](Cc1ccccc1)C(=O)N[C@H](CC(N)=O)C(=O)N[C@@H](Cc1ccccc1)C(=O)N[C@@H](Cc1ccccc1)C(=O)N[C@@H](CCCCN)C(=O)N[C@@H](CCCNC(=N)N)C(=O)N[C@@H](CCCNC(=N)N)C(=O)O)[C@@H](C)CC)[C@@H](C)O [S. mitis-CSP-2-E1Af10n11] (H-AIRQTHNIF[dF][dN]FFKRR-OH; N-terminus and C-terminus assumed) |  |  |  | IC50 (S. mitis ComD-2 receptor [1]): > 1000 nM |
| CC[C@H](C)[C@H](NC(=O)[C@H](CC(N)=O)NC(=O)[C@@H](Cc1c[nH]cn1)NC(=O)[C@@H](NC(=O)[C@H](CCC(N)=O)NC(=O)[C@H](CCCNC(=N)N)NC(=O)[C@@H](NC(=O)[C@@H](N)CCC(=O)O)[C@@H](C)CC)[C@@H](C)O)C(=O)N[C@@H](Cc1ccccc1)C(=O)N[C@@H](Cc1ccccc1)C(=O)N[C@@H](CC(N)=O)C(=O)N[C@@H](Cc1ccccc1)C(=O)N[C@@H](Cc1ccccc1)C(=O)N[C@@H](CCCCN)C(=O)N[C@@H](CCCNC(=N)N)C(=O)N[C@@H](CCCNC(=N)N)C(=O)O [S. mitis-CSP-2-h6] (H-EIRQT[dH]NIFFNFFKRR-OH; N-terminus and C-terminus assumed) | > 1000 |  |  |  |
| CC[C@H](C)[C@H](NC(=O)[C@@H](N)CCC(=O)O)C(=O)N[C@@H](CCCNC(=N)N)C(=O)N[C@@H](CCC(N)=O)C(=O)N[C@H](C(=O)N[C@@H](Cc1c[nH]cn1)C(=O)N[C@H](CC(N)=O)C(=O)N[C@H](C(=O)N[C@@H](Cc1ccccc1)C(=O)N[C@@H](Cc1ccccc1)C(=O)N[C@@H](CC(N)=O)C(=O)N[C@@H](Cc1ccccc1)C(=O)N[C@@H](Cc1ccccc1)C(=O)N[C@@H](CCCCN)C(=O)N[C@@H](CCCNC(=N)N)C(=O)N[C@@H](CCCNC(=N)N)C(=O)O)[C@@H](C)CC)[C@@H](C)O [S. mitis-CSP-2-n7] (H-EIRQTH[dN]IFFNFFKRR-OH; N-terminus and C-terminus assumed) | > 1000 |  |  |  |
| CC[C@H](C)[C@H](NC(=O)[C@H](CC(N)=O)NC(=O)[C@H](Cc1c[nH]cn1)NC(=O)[C@@H](NC(=O)[C@@H](CCC(N)=O)NC(=O)[C@H](CCCNC(=N)N)NC(=O)[C@@H](NC(=O)[C@@H](N)CCC(=O)O)[C@@H](C)CC)[C@@H](C)O)C(=O)N[C@@H](Cc1ccccc1)C(=O)N[C@@H](Cc1ccccc1)C(=O)N[C@@H](CC(N)=O)C(=O)N[C@@H](Cc1ccccc1)C(=O)N[C@@H](Cc1ccccc1)C(=O)N[C@@H](CCCCN)C(=O)N[C@@H](CCCNC(=N)N)C(=O)N[C@@H](CCCNC(=N)N)C(=O)O [S. mitis-CSP-2-q4] (H-EIR[dQ]THNIFFNFFKRR-OH; N-terminus and C-terminus assumed) | > 1000 |  |  |  |
| CC[C@H](C)[C@H](NC(=O)[C@H](CC(N)=O)NC(=O)[C@H](Cc1c[nH]cn1)NC(=O)[C@H](NC(=O)[C@H](CCC(N)=O)NC(=O)[C@H](CCCNC(=N)N)NC(=O)[C@@H](NC(=O)[C@@H](N)CCC(=O)O)[C@@H](C)CC)[C@H](C)O)C(=O)N[C@@H](Cc1ccccc1)C(=O)N[C@@H](Cc1ccccc1)C(=O)N[C@@H](CC(N)=O)C(=O)N[C@@H](Cc1ccccc1)C(=O)N[C@@H](Cc1ccccc1)C(=O)N[C@@H](CCCCN)C(=O)N[C@@H](CCCNC(=N)N)C(=O)N[C@@H](CCCNC(=N)N)C(=O)O [S. mitis-CSP-2-t5] (H-EIRQ[dT]HNIFFNFFKRR-OH; N-terminus and C-terminus assumed) | > 1000 |  |  |  |
| AIRQTHNIFFNAFKRR [S. mitis-CSP-2-E1AF12A] |  |  |  | IC50 (S. mitis ComD-2 receptor [1]): > 1000 nM |
| AIRQTHNIFFNFAKRR [S. mitis-CSP-2-E1AF13A] |  |  |  | IC50 (S. mitis ComD-2 receptor [1]): > 1000 nM |
| EIRQTANIFFNFFKRR [S. mitis-CSP-2-H6A] | > 1000 |  |  |  |
| EIRQTHNIAFNFFKRR [S. mitis-CSP-2-F9A] | > 1000 |  |  |  |
| EIRQTHNIFFNFF [S. mitis-CSP-2-des-K14R15R16, truncated analog of S. mitis-CSP-2] |  |  |  | ComD-2 activation: EC50 not determined due to the analog's low induction in primary agonism screening assay (S. mitis ComD-2 receptor [2]; initial screening at 10,000 nM peptide): complete loss of activity |
| EMRLTHFIFFNFFKRR [S. mitis-CSP-2-I2MQ4LN7F] | > 1000 | 137 | 75.6 |  |
| EMRLTHNFFFNFFKRR [S. mitis-CSP-2-I2MQ4LI8F, S. mitis-CSP-2-based pneumococcal QS modulator from previous study] |  | 42 | 30 |  |
| EMRLTHNIFFFFFKRR [S. mitis-CSP-2-I2MQ4LN11F] | > 1000 | 14.8 | 188 |  |
| EMRQTHFFFFNFFKRR [S. mitis-CSP-2-I2MN7FI8F] | > 1000 | 63.6 | 13.5 |  |
| EMRQTHFIFFNLFKRR [S. mitis-CSP-2-I2MN7FF12L] | > 1000 | 72.8 | 112 |  |
| EMRQTHIFFFNFFKRR [S. mitis-CSP-2-I2MN7II8F] | > 1000 | 61.6 | 2.67 |  |
| EMRQTHNFFFFFFKRR [S. mitis-CSP-2-I2MI8FN11F, S. mitis-CSP-2-based pneumococcal QS modulator from previous study] |  | 6.95 | 26.2 |  |
| EMRQTHNFFFNFFKRR [S. mitis-CSP-2-I2MI8F, S. mitis-CSP-2-based pneumococcal QS modulator from previous study] |  | 151 | 83.2 |  |
| IRQTHNIFFNFFKRR [S. mitis-CSP-2-des-E1] |  |  |  | % ComD activation, primary antagonism screening (S. mitis ComD-2 receptor [1]; 10 μM peptide against 1 µM S. mitis-CSP-2 (100%), DMSO 0%): less than 50%; IC50 (S. mitis ComD-2 receptor [1]): > 1000 nM |
